US10040788B2, “1,3,4-thiadiazole compounds and their use in treating cancer” (AstraZeneca AB, priority 2014, dated 2018)

Legend:
GLS1 = GLS1 (Homo sapiens (Human), UniProt O94925); experiment: GLS Enzyme Potency Assay (Glutamate Oxidase/AmplexRed coupled assay); type: biochemical; details: 6His tagged GLS protein (amino acids 63-669); geometric mean where repeated
Excerpt: The following assays were used to measure the effects of the compounds of the present invention: a) GLS Enzyme Potency Assay; b) GLS Cell Potency Assay; c) GLS Cell Proliferation Assay; and d) Mouse Xenograft Model. During the description of the assays, generally: • i. The following abbreviations have been used: CO2=Carbon dioxide; DMEM=Dulbecco's Modified Eagle Medium; DMSO=Dimethyl sulphoxide; EDTA=Ethylenediaminetetraacetic acid; EGTA=Ethylene glycol tetraacetic acid; FCS=Foetal calf serum; h=Hour(s); NBS=Non-binding surface; SDS=Sodium dodecyl sulphate; r.t.=room temperature; TRIS=Tris(Hydroxymethyl)aminomethane. • ii. IC50 values were calculated using a smart fitting model in Genedata. […] Assay a): GLS Enzyme Potency Assay
A Glutamate Oxidase/AmplexRed coupled assay was used to measure the ability of compounds to bind to and inhibit the activity of GLS1 in vitro. […] GLS1 was diluted to 2× working concentration and incubated at r.t. to allow the tetrameric/dimeric forms to reach steady state. Assay measurements were performed in buffer comprising 50 mM TRIS pH 7.8, 100 mM NaPO4, pH 7.8, 0.001% v/v Tween20. […] DMSO concentration was maintained at 2% by back filling with DMSO solution. […] 3 μL of 100 mM glutamine diluted in assay buffer was then added and the reaction incubated at r.t. for 60 minutes. […] An artefact version of the assay where the 6His tagged GLS protein and glutamine were replaced with assay buffer was also used to rule out non specific effects on the assay components.

cellular GLS activity = cellular GLS activity (Homo sapiens (Human), UniProt O94925); experiment: GLS Cell Potency Assay (PC3 coupled assay measuring cellular glutamate depletion); type: cell-based; details: PC3 cells, 6 h incubation, cellular glutamate depletion; geometric mean where repeated; read-out: Assay b) GLS Cell Potency Assay IC50
Excerpt: (§1) The following assays were used to measure the effects of the compounds of the present invention: a) GLS Enzyme Potency Assay; b) GLS Cell Potency Assay; c) GLS Cell Proliferation Assay; and d) Mouse Xenograft Model. During the description of the assays, generally: • i. The following abbreviations have been used: CO2=Carbon dioxide; DMEM=Dulbecco's Modified Eagle Medium; DMSO=Dimethyl sulphoxide; EDTA=Ethylenediaminetetraacetic acid; EGTA=Ethylene glycol tetraacetic acid; FCS=Foetal calf serum; h=Hour(s); NBS=Non-binding surface; SDS=Sodium dodecyl sulphate; r.t.=room temperature; TRIS=Tris(Hydroxymethyl)aminomethane. • ii. […]
Compounds were assessed for their potential to inhibit cellular GLS activity by use of a PC3 coupled assay measuring cellular glutamate depletion. […] DMSO concentration was maintained at 0.3% by back filling with DMSO solution. PC3 cells were grown in phenol free DMEM, 10% dialyzed FCS, 2 mM glutamine and following dispersal by trypsinisation were plated at 5.6×10^3 cells per well in 40 μl of growth medium directly into the 384 well assay plates containing dispensed compound. After incubation for 6 h at 37° C., 5% CO2 growth media was aspirated and cells lysed in 15 μl of buffer containing 10 mM TRIS pH7.4, 100 mM NaCl, 1 mM EDTA, 1 mM EGTA, 1 mM NaF, 20 mM Na4P2O7, 2 mM Na3VO4, 1% Triton X-100, 10% glycerol, 0.1% SDS and 0.5% deoxycholate.

NCI-H1703 cells = experiment: GLS Cell Proliferation Assay (NCI-H1703); type: cell-based, human; details: Homo sapiens, 120 h; NCI-H1703 cells, 5 days incubation; geometric mean where repeated; read-out: Assay c) GLS Cell Proliferation Assay
Excerpt: as §1
The ability of compounds to inhibit cell growth was measured using a 384 well plate NCI-H1703 cell proliferation assay. NCI-H1703 cells were grown in phenol red free RPMI1640, 10% FCS and 2 mM glutamine and seeded at a density of 750 cells per well in 40 μl of growth medium into clear-bottom 384 well assay plates (Corning product code 3712) and incubated for 24 h at 37° C., 5% CO2. […] DMSO concentration was maintained at 0.3% by back filling with DMSO solution. Plates were incubated for 5 days at 37° C., 5% CO2, Sytox Green and Saponin added to final concentration of 2 μM and 0.25% respectively and incubated for 6 h prior to analysis. Plates were read on an Acumen eX3 (TTP Labtech) using 488 nm excitation and FITC filter set (500-530 nm) for emission. IC50 values were calculated by curve fitting to max inhibition of day zero growth using GeneData software analysis.

Sequence of GLS1 (O94925 63-669): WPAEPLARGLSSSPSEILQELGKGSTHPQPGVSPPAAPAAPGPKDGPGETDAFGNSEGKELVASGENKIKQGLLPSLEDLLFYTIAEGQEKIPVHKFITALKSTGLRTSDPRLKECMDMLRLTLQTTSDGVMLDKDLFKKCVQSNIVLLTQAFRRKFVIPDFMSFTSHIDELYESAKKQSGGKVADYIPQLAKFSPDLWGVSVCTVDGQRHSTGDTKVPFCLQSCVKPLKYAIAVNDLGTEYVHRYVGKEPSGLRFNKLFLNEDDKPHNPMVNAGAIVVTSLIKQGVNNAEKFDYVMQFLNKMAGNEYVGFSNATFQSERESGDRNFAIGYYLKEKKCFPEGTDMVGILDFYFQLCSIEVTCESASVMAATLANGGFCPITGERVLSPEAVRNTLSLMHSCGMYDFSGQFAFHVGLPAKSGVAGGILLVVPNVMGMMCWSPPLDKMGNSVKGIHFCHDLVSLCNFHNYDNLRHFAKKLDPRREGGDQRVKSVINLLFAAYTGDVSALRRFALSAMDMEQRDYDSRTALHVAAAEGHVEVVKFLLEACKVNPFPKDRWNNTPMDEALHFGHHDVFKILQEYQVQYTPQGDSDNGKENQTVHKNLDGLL
Sequence of cellular GLS activity (O94925 55-669): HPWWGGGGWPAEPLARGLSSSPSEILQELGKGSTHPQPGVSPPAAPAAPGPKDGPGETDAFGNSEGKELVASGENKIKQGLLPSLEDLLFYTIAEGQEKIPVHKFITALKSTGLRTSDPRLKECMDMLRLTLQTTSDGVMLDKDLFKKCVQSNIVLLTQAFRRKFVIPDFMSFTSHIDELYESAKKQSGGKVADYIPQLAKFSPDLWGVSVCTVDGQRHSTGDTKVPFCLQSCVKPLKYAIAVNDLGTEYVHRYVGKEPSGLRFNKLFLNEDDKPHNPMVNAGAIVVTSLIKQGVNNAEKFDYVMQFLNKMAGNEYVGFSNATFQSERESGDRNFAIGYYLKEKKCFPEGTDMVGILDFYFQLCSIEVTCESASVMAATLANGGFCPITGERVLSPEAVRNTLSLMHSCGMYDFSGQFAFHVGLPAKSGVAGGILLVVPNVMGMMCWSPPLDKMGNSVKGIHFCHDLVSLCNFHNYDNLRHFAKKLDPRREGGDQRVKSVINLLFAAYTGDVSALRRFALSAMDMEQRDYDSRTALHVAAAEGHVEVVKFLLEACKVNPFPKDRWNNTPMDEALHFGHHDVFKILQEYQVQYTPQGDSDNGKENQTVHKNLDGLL

SMILES	IC50 (GLS1) [nM]	IC50 (cellular GLS activity) [nM]	IC50 (NCI-H1703 cells) [nM]
CCO[C@H](C(=O)Nc1nnc(N[C@@H]2CCN(c3nccnn3)C2)s1)c1ccc(F)cc1 [35(a), (2S)-2-ethoxy-2-(4-fluorophenyl)-N-[5-[[(3R)-1-(1,2,4-triazin-3-yl)pyrrolidin-3-yl]amino]-1,3,4-thiadiazol-2-yl]acetamide]	1950	337	7130
CCO[C@@H](C(=O)Nc1nnc(N[C@@H]2CCN(c3nccnn3)C2)s1)c1ccc(F)cc1 [35(b), (2R)-2-ethoxy-2-(4-fluorophenyl)-N-[5-[[(3R)-1-(1,2,4-triazin-3-yl)pyrrolidin-3-yl]amino]-1,3,4-thiadiazol-2-yl]acetamide]	155	18.7	404
CO[C@H](C(=O)Nc1nnc(N[C@@H]2CCN(c3cncnn3)C2)s1)c1ccccc1 [Example 3, (2S)-2-Methoxy-2-phenyl-N-[5-[[(3R)-1-(1,2,4-triazin-6-yl)pyrrolidin-3-yl]amino]-1,3,4-thiadiazol-2-yl]acetamide]	29	0.39	3.24
COc1cccc([C@H](OC)C(=O)Nc2nnc(N[C@@H]3CCN(c4nccnn4)C3)s2)c1 [Example 4(a), (2S)-2-Methoxy-2-(3-methoxyphenyl)-N-[5-[[(3R)-1-(1,2,4-triazin-3-yl)pyrrolidin-3-yl]amino]-1,3,4-thiadiazol-2-yl]acetamide]	35.5	1.51	5.01
COc1cccc([C@@H](OC)C(=O)Nc2nnc(N[C@@H]3CCN(c4nccnn4)C3)s2)c1 [Example 4(b), (2R)-2-Methoxy-2-(3-methoxyphenyl)-N-[5-[[(3R)-1-(1,2,4-triazin-3-yl)pyrrolidin-3-yl]amino]-1,3,4-thiadiazol-2-yl]acetamide]	908	76	262
COc1cccc([C@H](OC)C(=O)Nc2nnc(N[C@@H]3CCN(c4cccnn4)C3)s2)c1 [Example 5(a), (2S)-2-Methoxy-2-(3-methoxyphenyl)-N-[5-[[(3R)-1-pyridazin-3-ylpyrrolidin-3-yl]amino]-1,3,4-thiadiazol-2-yl]acetamide]	21.5	0.19	3.38
COc1cccc([C@@H](OC)C(=O)Nc2nnc(N[C@@H]3CCN(c4cccnn4)C3)s2)c1 [Example 5(b), (2R)-2-Methoxy-2-(3-methoxyphenyl)-N-[5-[[(3R)-1-pyridazin-3-ylpyrrolidin-3-yl]amino]-1,3,4-thiadiazol-2-yl]acetamide]	87.9	5.3	53.5
CO[C@H](C(=O)Nc1nnc(N[C@@H]2CCN(c3nccnn3)C2)s1)c1cccc(OC(F)F)c1 [Example 6(a), (2S)-2-[3-(Difluoromethoxy)phenyl]-2-methoxy-N-[5-[[(3R)-1-(1,2,4-triazin-3-yl)pyrrolidin-3-yl]amino]-1,3,4-thiadiazol-2-yl]acetamide]	85.1	2.57	16.6
CO[C@@H](C(=O)Nc1nnc(N[C@@H]2CCN(c3nccnn3)C2)s1)c1cccc(OC(F)F)c1 [Example 6(b), (2R)-2-[3-(Difluoromethoxy)phenyl]-2-methoxy-N-[5-[[(3R)-1-(1,2,4-triazin-3-yl)pyrrolidin-3-yl]amino]-1,3,4-thiadiazol-2-yl]acetamide]	519	37	81.7
CO[C@H](C(=O)Nc1nnc(N[C@@H]2CCN(c3cccnn3)C2)s1)c1cccc(OC(F)(F)F)c1 [Example 9(a), (2S)-2-Methoxy-N-[5-[[(3R)-1-pyridazin-3-ylpyrrolidin-3-yl]amino]-1,3,4-thiadiazol-2-yl]-2-[3-(trifluoromethoxy)phenyl]acetamide]	18.6	0.14	0.725
CO[C@@H](C(=O)Nc1nnc(N[C@@H]2CCN(c3cccnn3)C2)s1)c1cccc(OC(F)(F)F)c1 [Example 9(b), (2R)-2-Methoxy-N-[5-[[(3R)-1-pyridazin-3-ylpyrrolidin-3-yl]amino]-1,3,4-thiadiazol-2-yl]-2-[3-(trifluoromethoxy)phenyl]acetamide]	32.9	2.3	4.4
